# US20170120592A1, “INK JET RECORDING METHOD AND INK JET RECORDING APPARATUS” (CANON KABUSHIKI KAISHA, priority 2015, published 2017)
# Experiment: Water-solubility of dye
# Assay type: physicochemical
# Details: maximum mass of the dye in a sodium salt form that can be dissolved in 100 g of pure water at 20° C.
row,water-solubility of the dye,Compound
1,Blue 9 (40 g),CCN(Cc1cccc(S(=O)(=O)[O-])c1)c1ccc(C(=C2C=CC(=[N+](CC)Cc3cccc(S(=O)(=O)[O-])c3)C=C2)c2ccccc2S(=O)(=O)[O-])cc1.[Na+].[Na+] [C.I. Acid Blue 9]
2,(21 g),C.I. Direct Red 249

# Second part, the compound before the results:
row,Compound,water-solubility of the dye
1,C.I. Direct Yellow 86,(10 g)
2,C.I. Direct Red 289,(14 g)
3,C.I. Direct Blue 199,(30 g)
